Reference: PubChem BioAssay (NCI)
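Following 48 hours of exposure in 96-well plates, responses at five concentrations were used to interpolate endpoints linearly. GI50 marks 50% less growth. TGI: total growth inhibition.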

What was measured:
Assay in all cases: NCI-60 cell line screen, 48 h
A498 renal = tested on: A498 renal
BT-549 breast = tested on: BT-549 breast
HCT-15 colon = tested on: HCT-15 colon
MDA-MB-231 breast = tested on: MDA-MB-231 breast
RPMI-8226 leukemia = tested on: RPMI-8226 leukemia
RXF 393 renal = tested on: RXF 393 renal
SF-268 CNS = tested on: SF-268 CNS
SF-295 CNS = tested on: SF-295 CNS
SK-MEL-2 melanoma = tested on: SK-MEL-2 melanoma
TK-10 renal = tested on: TK-10 renal

## O=C1[C@H](Cc2ccc(O)cc2)N2C(=O)CCN(C(=O)NCc3ccccc3)[C@H]2CN1Cc1cccc2ccccc12
A498 renal
  GI50: 1.38 µM
  TGI: 6.75 µM
BT-549 breast
  GI50: 3.01 µM
  TGI: 22.6 µM
HCT-15 colon
  GI50: 15.5 µM
  TGI: > 89.8 µM
MDA-MB-231 breast
  GI50: 0.605 µM
  TGI: 3.6 µM
RPMI-8226 leukemia
  GI50: 3.66 µM
  TGI: 23.1 µM
RXF 393 renal
  GI50: 3.8 µM
  TGI: 14.5 µM
SF-268 CNS
  GI50: 1.81 µM
  TGI: 15.5 µM
SF-295 CNS
  GI50: 3.22 µM
  TGI: 17.6 µM
SK-MEL-2 melanoma
  GI50: 2.64 µM
  TGI: 9.18 µM
TK-10 renal
  GI50: 3.88 µM
  TGI: 30.7 µM
